Measurements as given in patent US11485751B2, “Apramycin derivatives” (WAYNE STATE UNIVERSITY, priority 2017, dated 2022).
Values after ≈ are worked out from the molar mass of the structure shown. Where two headings read alike, the source gives them in different places.

Assays:
[1] = system: WT clinical isolates; test: MIC broth microdilution, WT; type: cell-based; conditions: wild type; for MIC: read-out: MIC WT, clinical isolates, IMM Univ. Zurich
Description: (§1) Minimal inhibitory concentrations (MIC) have been determined by broth microdilution assays (CLSI. Methods for Dilution Antimicrobial Susceptibility Tests for Bacteria That Grow Aerobically; Approved Standard—Tenth Edition. CLSI document M07-A10. Wayne, Pa.: Clinical and Laboratory Standards Institute; 2015.).
(§2) Minimal inhibitory concentrations (MICs, […]) against clinical isolates from Institute of Medical Microbiology, Univ. Zurich, and the IC50 values for bacterial, human mitochondrial and human cytosolic ribosomes are indicated.
(§3) Minimal inhibitory concentrations (μg/ml) against clinical isolates from Institute of Medical Microbiology, Univ. Zurich, and the IC50 values for bacterial, human mitochondrial and human cytosolic ribosomes are indicated.
(§4) The Minimal inhibitory concentrations (MICs, μg/ml) against clinical isolates from Institute of Medical Microbiology, Univ Zurich, and the IC50 values for bacterial, human mitochondrial and human cytosolic ribosomes are indicated.

[2] = system: clinical isolates carrying AAC(3)-IV; test: MIC broth microdilution, AAC(3)-IV; type: cell-based; conditions: clinical isolates, IMM Univ. Zurich, AAC(3)-IV; for MIC: read-out: MIC AAC(3)-IV
Description: as §1, §2, §3, §4

[3] = system: isolates carrying apmA; test: MIC broth microdilution, apmA; type: cell-based; conditions: apmA resistance gene
Description: as §1, with “2015.). […]” for “2015.).”
as §3, §4

[4] = system: bacterial ribosomes; test: in-vitro translation assay, bacterial ribosomes; type: biochemical
Description: (§5) IC50 values for bacterial, human chimeric, and rabbit reticulocyte ribosomes have been determined by in-vitro translation assays as described previously (Proc. Nat. Ac. Sci USA 2012, 109(27):10984-10989).
as §2

[5] = system: human mitochondrial ribosomes; test: in-vitro translation assay, human mitochondrial (human chimeric) ribosomes; type: biochemical
Description: as §5, §2

[6] = system: human cytosolic ribosomes; test: in-vitro translation assay, human cytosolic ribosomes; type: biochemical
Description: as §5, §2

[7] = system: AG212, Escherichia coli ATCC25922; test: MIC reference strain AG212; type: cell-based; conditions: for MIC: Escherichia coli
Description: as §1
(§6) Table 4 and 5 show the antibacterial activity of the compounds of the invention against bacterial reference strains (table 4) and against representative clinical isolates (table 5).
(§7) Legend to Tables: GEN, gentamicin; AMK, amikacin; PLZ, plazomicin; APR, apramycin; AG212, Escherichia coli ATCC25922; AG215, Klebsiella pneumonia; AG220, Pseudomonas aeruginosa ATCC27853; AG225, Acinetobacter baumannii pittii; AG290, Enterobacter cloacae; […], Mycobacterium smegmatis. MICs for AG192 have been determined in the presence of 0.5 μg/mL of ampicillin in the medium to mimic the synergistic effect of aminoglycoside and β-lactam antibiotics combination therapy in the treatment of Enterococcus infections in humans.

[8] = system: AG215, Klebsiella pneumonia; test: MIC reference strain AG215; type: cell-based; conditions: for MIC: Klebsiella pneumoniae, read-out: MIC AG215 K. pneumonia
Description: as §1, §6, §7

[9] = system: AG290, Enterobacter cloacae; test: MIC reference strain AG290; type: cell-based; conditions: for MIC: Enterobacter cloacae, read-out: MIC AG290 E. cloacae
Description: as §1, §6, §7

[10] = system: AG220, Pseudomonas aeruginosa ATCC27853; test: MIC reference strain AG220; type: cell-based; conditions: for MIC: Pseudomonas aeruginosa
Description: as §1, §6, §7

[11] = system: AG225, Acinetobacter baumannii pittii; test: MIC reference strain AG225; type: cell-based; conditions: for MIC: Acinetobacter baumannii, read-out: MIC AG225 A. baumannii
Description: as §1, §6, §7

[12] = system: SZ380, Mycobacterium smegmatis; test: MIC reference strain SZ380; type: cell-based; conditions: reference strain; for MIC: Mycolicibacterium smegmatis, read-out: MIC SZ380 M. smegmatis
Description: as §1, §6, §7

[13] = system: ATCC19977 M. abcessus; test: MIC reference strain ATCC19977; type: cell-based; conditions: for MIC: read-out: MIC ATCC19977 M. abcessus
Description: as §1, §6

[14] = system: AG001 E. coli WT; test: Antibacterial activity, clinical isolate AG001; type: cell-based; set-up: unit not given here
Description: as §1, §6

[15] = system: AG055 E. coli WT; test: Antibacterial activity, clinical isolate AG055; type: cell-based; set-up: unit not given here
Description: as §1, §6

[16] = system: AG003 E. coli AAC(3)-II; test: Antibacterial activity, clinical isolate AG003; type: cell-based
Description: as §1, §6

[17] = system: AG173 E. coli AAC(3)-IV; test: Antibacterial activity, clinical isolate AG173; type: cell-based
Description: as §1, §6

[18] = system: AG038 MRSA; test: Antibacterial activity, clinical isolate AG038; type: cell-based; set-up: unit not given here
Description: as §1, §6

[19] = system: AG039 MRSA AAC(6′)-I ANT(4′)-I; test: Antibacterial activity, clinical isolate AG039; type: cell-based
Description: as §1, §6

[20] = system: AG042 MRSA AAC(6′)-I ANT(4′)-I APH(2′); test: Antibacterial activity, clinical isolate AG042; type: cell-based; set-up: unit not given here
Description: as §1, §6

[21] = system: AG031 P. aer. APH(3′)-II; test: Antibacterial activity, clinical isolate AG031; type: cell-based; set-up: unit not given here
Description: as §1, §6

[22] = system: AG032 P. aer. APH(3′)-II; test: Antibacterial activity, clinical isolate AG032; type: cell-based; set-up: unit not given here
Description: as §1, §6

[23] = system: AG033 P. aer. APH(3′)-II AAC(6′)-I; test: Antibacterial activity, clinical isolate AG033; type: cell-based; set-up: unit not given here
Description: as §1, §6

[24] = system: Engineered E. coli pH430 WT; test: Activity, engineered E. coli pH430 WT; type: cell-based; conditions: wild type
Description: as §1

[25] = system: Engineered E. coli AG103 armA; test: Activity against G1405-methylated 16S-rRNA, E. coli AG103 armA; type: cell-based
Description: as §1

[26] = system: Engineered E. coli pH424 armA; test: Activity against G1405-methylated 16S-rRNA, E. coli pH424 armA; type: cell-based
Description: as §1

[27] = system: Engineered E. coli pH425 rmtB; test: Activity against G1405-methylated 16S-rRNA, E. coli pH425 rmtB; type: cell-based
Description: as §1

[28] = system: Engineered E. coli pH426 rmtC; test: Activity against G1405-methylated 16S-rRNA, E. coli pH426 rmtC; type: cell-based
Description: as §1

[29] = system: Engineered E. coli pH427 rmtF; test: Activity against G1405-methylated 16S-rRNA, E. coli pH427 rmtF; type: cell-based
Description: as §1

[30] = reference strain ATCC25922, read-out: MIC AG212 E. coli
[31] = ATCC27853, reference strain ATCC27853, read-out: MIC AG220 P. aeruginosa

| Structure (SMILES) | IC50 [4] | IC50 [5] | IC50 [6] | Antibacterial activity AG001 E. coli WT [14] | Antibacterial activity AG055 E. coli WT [15] | Antibacterial activity AG003 E. coli AAC(3)-II [16] | Antibacterial activity AG173 E. coli AAC(3)-IV [17] | Antibacterial activity AG038 MRSA [18] | Antibacterial activity AG039 MRSA AAC(6′)-I ANT(4′)-I [19] | Antibacterial activity AG042 MRSA AAC(6′)-I ANT(4′)-I APH(2′) [20] | Antibacterial activity AG031 P. aer. APH(3′)-II [21] | Antibacterial activity AG032 P. aer. APH(3′)-II [22] | Antibacterial activity AG033 P. aer. APH(3′)-II AAC(6′)-I [23] | Activity E. coli pH430 WT [24] | Activity E. coli AG103 armA [25] | Activity E. coli pH424 armA [26] | Activity E. coli pH425 rmtB [27] | Activity E. coli pH426 rmtC [28] | Activity E. coli pH427 rmtF [29] | MIC [1] | further results |
| --- | --- | --- | --- | --- | --- | --- | --- | --- | --- | --- | --- | --- | --- | --- | --- | --- | --- | --- | --- | --- | --- |
| CNC1C(OC2OC(CO)C(N)C(O)C2O)OC2CC(N)C(OC3C(N)CC(N)C(O)C3F)OC2C1O (stereo not drawn) [DC168, 5-Deoxy-5-epi-fluoro apramycin] | 0.05 µM | 30 µM | 28 µM | 8 | 4 | 4 | 128 | 2-4 | 2-4 | 4 | 8-16 | 8-16 | 32 | 2 | 1 | 2 | 2 | 2 | 2 | – | MIC WT ([1]; clinical isolates, IMM Univ. Zurich): 2 mg/L (≈ 3.69 µM); MIC AAC(3)-IV [2]: >32 mg/L; MIC apmA [3]: 4 mg/L (≈ 7.39 µM); MIC AG212 E. coli ([7]; reference strain ATCC25922): 4 mg/L; MIC AG215 K. pneumonia ([8]; reference strain): 1 mg/L; MIC AG290 E. cloacae ([9]; reference strain): 4 mg/L; MIC AG220 P. aeruginosa ([10]; reference strain ATCC27853): 4 mg/L; MIC AG225 A. baumannii ([11]; reference strain): 4 mg/L; MIC SZ380 M. smegmatis [12]: 0.125 mg/L; MIC ATCC19977 M. abcessus ([13]; reference strain): 1 mg/L (≈ 1.85 µM) |
| CNC1C(OC2OC(CO)C(N)C(O)C2O)OC2CC(N)C(OC3CC(O)C(N)CC3N)OC2C1O (centres unmarked) [DC169, 5-Deoxy-apramycin] | 0.06 µM | 45 µM | 42 µM | 4 | 4 | 4 | 32 | 2-4 | 2 | 4 | 8 | 8 | 16 | 4 | 1 | 2 | 4 | 4 | 4 | 4 mg/L (≈ 7.64 µM) | MIC [2]: > 32 mg/L; MIC [3]: 16 mg/L (≈ 30.6 µM); MIC [7, 30]: 4 mg/L; MIC ([8]; reference strain): 2 mg/L; MIC ([9]; reference strain): 2 mg/L; MIC [10, 31]: 4 mg/L; MIC ([11]; reference strain): 4 mg/L; MIC [12]: 0.125 mg/L; MIC [13]: 1 mg/L (≈ 1.91 µM) |
| CNC1C(OC2OC(CO)C(N)C(O)C2O)OC2CC(N)C(OC3C(N)CC(N)C(O)C3F)OC2C1O (centres unmarked) [DC170, 5-Deoxy-5-fluoro apramycin] | 0.06 µM | 62 µM | 74 µM | 8 | 4 | 8 | 64 | 4-8 | 4-8 | 8 | 8-16 | 16 | 32 | 4 | 2 | 2 | 4 | 4 | 4 | 4 mg/L (≈ 7.39 µM) | MIC [2]: > 32 mg/L; MIC apmA [3]: 32 mg/L (≈ 59.1 µM); MIC [7, 30]: 4 mg/L; MIC ([8]; reference strain): 2 mg/L; MIC ([9]; reference strain): 4 mg/L; MIC [10, 31]: 8 mg/L; MIC ([11]; reference strain): 4 to 8 mg/L; MIC [12]: 0.25 mg/L; MIC [13]: 1 mg/L (≈ 1.85 µM) |
| CNC1C(OC2OC(CO)C(N)C(O)C2O)OC2CC(N)C(OC3C(N)CC(N)C(O)C3OCC(O)CN)OC2C1O (centres unmarked) [DC212] | 0.1 µM | 158 µM | 112 µM | 8 | – | – | – | 4 | – | – | 8 | – | – | – | – | – | – | – | – | 4 mg/L (≈ 6.53 µM) | MIC ([7]; ATCC25922, read-out: MIC AG212 E. coli): 4 mg/L; MIC [8]: 2 mg/L; MIC [9]: 4 mg/L; MIC ([10]; ATCC27853, read-out: MIC AG220 P. aeruginosa): 4 mg/L; MIC [11]: 4 mg/L |
| CN[C@@H]1[C@@H](O)[C@@H](O[C@@H]2[C@@H](O)[C@H](O[C@H]3OC(CNCCO)=CC[C@H]3N)[C@@H](N)C[C@H]2NC(=O)[C@@H](O)CCN)OC[C@]1(C)O [PLZ, plazomicin, reference compound] | – | – | – | 2-4 | 2-4 | 2-4 | – | 2-4 | 2-4 | 2 | 4 | 4 | 16-32 | 0.5 | >32 | – | – | – | – | – | MIC [7, 30]: 0.5 to 1 mg/L; MIC ([8]; reference strain): 0.25 to 0.5 mg/L; MIC ([9]; reference strain): 0.5 mg/L; MIC [10, 31]: 2 to 4 mg/L; MIC ([11]; reference strain): 2 mg/L; MIC [13]: 4 mg/L (≈ 6.75 µM) |
